{
  "source": "patent US4973593A",
  "about": "“Novel compounds for the treatment of hypertension” (Research Corporation Technologies, Inc., priority 1987, dated 1990)",
  "key": {"nigrostriatal projection": {"system": "nigrostriatal projection", "assay": "Rotation Assay (circling behavior, 6-hydroxydopamine unilateral denervation of the nigrostriatal projection)", "format": "in vivo, Male Sprague-Dawley rats", "conditions": "for antagonism of apomorphine-induced rotations in rats: apomorphine 0.25 mg/kg, compound 4.0 mg/kg; for rotational behavior in rats with unilateral lesions of the nigrostriatal projection: dose 4.0 mg/kg", "experimental": "Male Sprague-Dawley rats with 6-hydroxydopamine unilateral denervation of the nigrostriatal projection were used to test compounds for circling behavior according to the procedure of Cannon, et al. in J. Med. Chem 1984, 27, 186. Compounds were administered at a dose of 4.0 mg/kg and were also evaluated for their ability to antagonize apomorphine (0.25 mg/kg) induced rotations.\nFinally, the compounds 11, 15, and 18 were evaluated for in vivo rat rotation assay."}, "dopamine receptor": {"system": "dopamine receptor", "assay": "Dopamine Receptor Binding Studies ([^3 H]spiroperidol displacement, rat striatal tissue)", "conditions": "[^3 H]spiroperidol 2 nM", "experimental": "A method of Seeman, et al., Proc. Natl. Acad. Sci. U.S.A., 1975, 72, 4376, was employed using [^3 H]spiroperidol (2 nM) and rat striatal tissue.\nCompound 11 was also evaluated for its ability to displace [^3 H] spiroperidol (2nm) from rat striatal tissue."}, "[1]": {"system": "cat cardioaccelerator nerve", "assay": "Cat Cardioaccelerator Nerve Assay (in vivo peripheral dopamine agonist activity)", "conditions": "for % inhibn of nerve stimulation: N=3; for peripheral dopamine agonist activity: in vivo, summary of Table I", "experimental": "Cats were anesthetized by injection of pentobarbital sodium (30 mg/kg) into the thoracic cavity, and the surgical and experimental procedure was according to the procedure described in Cannon, J. G., et al. in J. Med. Chem. 1984, 27, 186. Experimental compounds were administered intravenously in doses of 0.33 log intervals.\nThe compounds 11, 15, and 18 were evaluated for in vivo dopamine agonist activity in the cat cardioaccelerator nerve assay."}},
  "data": [
    {"compound": "CN1CCCC2(OCCO2)C1Cc1cccc2[nH]ccc12", "note": "(stereo not drawn) [Compound 11, 6-(4-Indolylmethyl)-7-methyl-1,4-dioxa-7-azaspiro[4.5]decane]", "values": [
      {"measurement": "antagonism of apomorphine-induced rotations in rats", "setting": "nigrostriatal projection", "result": "nor did they antagonize apomorphine-induced rotations"},
      {"measurement": "rotational behavior in rats with unilateral lesions of the nigrostriatal projection", "setting": "nigrostriatal projection", "result": "None of the compounds screened produced rotational behavior"},
      {"measurement": "ability to displace [^3 H]spiroperidol from rat striatal tissue", "setting": "dopamine receptor", "result": "inactive"},
      {"measurement": "% inhibn of nerve stimulation", "setting": "[1]; dose 0.035, iv", "result": "26 ± 19", "unit": "%"},
      {"measurement": "% inhibn of nerve stimulation", "setting": "[1]; dose 0.105, iv", "result": "48 ± 21", "unit": "%"},
      {"measurement": "% inhibn of nerve stimulation", "setting": "[1]; dose 0.315, iv", "result": "79 ± 11", "unit": "%"},
      {"measurement": "peripheral dopamine agonist activity", "setting": "[1]", "result": "effective agonist activity"}
    ]},
    {"compound": "CN1CCCC2(OCCO2)C1Cc1c[nH]c2ccccc12", "note": "(stereo not drawn) [Compound 15, 6-(3-Indolylmethyl)-7-methyl-1,4-dioxa-7-azaspiro[4.5]decane]", "values": [
      {"measurement": "antagonism of apomorphine-induced rotations in rats", "setting": "nigrostriatal projection", "result": "nor did they antagonize apomorphine-induced rotations"},
      {"measurement": "rotational behavior in rats with unilateral lesions of the nigrostriatal projection", "setting": "nigrostriatal projection", "result": "None of the compounds screened produced rotational behavior"},
      {"measurement": "arterial pressure", "setting": "[1]; dose 3.5, iv", "result": "Increased arterial pressure at this dose"},
      {"measurement": "heart rate", "setting": "[1]; dose 3.5, iv", "result": "Increased heart rate slightly at this dose"},
      {"measurement": "% inhibn of nerve stimulation", "setting": "[1]; dose 3.5, iv", "result": "32 ± 17.4", "unit": "%"},
      {"measurement": "peripheral dopamine agonist activity", "setting": "[1]", "result": "effective agonist activity"}
    ]},
    {"compound": "CN1CCCC2(OCCO2)C1Cc1ccccc1", "note": "(stereo not drawn) [Compound 18, 6-Benzyl-7-methyl-1,4-dioxa-7-azaspiro[4.5]decane]", "values": [
      {"measurement": "antagonism of apomorphine-induced rotations in rats", "setting": "nigrostriatal projection", "result": "nor did they antagonize apomorphine-induced rotations"},
      {"measurement": "rotational behavior in rats with unilateral lesions of the nigrostriatal projection", "setting": "nigrostriatal projection", "result": "None of the compounds screened produced rotational behavior"},
      {"measurement": "% inhibn of nerve stimulation", "setting": "[1]; dose 0.46, iv", "result": "22 ± 11.7", "unit": "%"},
      {"measurement": "heart rate", "setting": "[1]; dose 1.38, iv", "result": "Increased heart rate slightly at this dose"},
      {"measurement": "% inhibn of nerve stimulation", "setting": "[1]; dose 1.38, iv", "result": "18 ± 2.0", "unit": "%"},
      {"measurement": "arterial pressure", "setting": "[1]; dose 4.60, iv", "result": "Increased arterial pressure at this dose"},
      {"measurement": "% inhibn of nerve stimulation", "setting": "[1]; dose 4.60, iv", "result": "36 ± 12.3", "unit": "%"},
      {"measurement": "peripheral dopamine agonist activity", "setting": "[1]", "result": "effective agonist activity"}
    ]}
  ]
}
